Experimental data: patent publication US10988478B1, “Pyrazolo[1,5a]pyrimidine derivatives as IRAK4 modulators” (Genentech, Inc., priority 2015, dated 2021)

These molecules were tested against human IRAK4 (Homo sapiens (Human), UniProt Q9NWZ3) (assay: IRAK4 kinase inhibition, Transcreener fluorescence polarization ADP assay). Settings: recombinant full-length His6-IRAK4; 125 uM ATP; 90 min; Ki computed using ATP Km 642 uM.
Chain of human IRAK4 (Q9NWZ3 whole entry): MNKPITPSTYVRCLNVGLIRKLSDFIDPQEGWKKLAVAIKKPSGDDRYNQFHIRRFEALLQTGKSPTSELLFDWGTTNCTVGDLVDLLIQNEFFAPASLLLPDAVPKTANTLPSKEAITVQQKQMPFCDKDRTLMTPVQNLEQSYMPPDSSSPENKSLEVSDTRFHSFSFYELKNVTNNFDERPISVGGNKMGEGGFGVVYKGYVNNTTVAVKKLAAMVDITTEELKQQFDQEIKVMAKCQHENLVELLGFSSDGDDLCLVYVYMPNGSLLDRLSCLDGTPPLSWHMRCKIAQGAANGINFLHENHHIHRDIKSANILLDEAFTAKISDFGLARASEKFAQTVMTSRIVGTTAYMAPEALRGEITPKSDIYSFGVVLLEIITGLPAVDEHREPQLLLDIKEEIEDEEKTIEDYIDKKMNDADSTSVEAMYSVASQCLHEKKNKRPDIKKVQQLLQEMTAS
Format: biochemical
Description: Compounds were assayed for inhibition of human IRAK4 and IRAK1 catalytic activity using recombinant enzyme produced from insect cells. Full-length IRAK4 protein, carrying an N-terminal His6-Tag, was obtained from Life Technologies (Carlsbad, Calif., USA). The IRAK1 construct was produced internally and was comprised of IRAK1 residues Arg194 to Ser712, preceded by an NH2-terminal His6 tag and the coding sequence for glutathione-S-transferase.
Work on `CNc1cnc2c(C(=O)Nc3cc4c(cc3N3CCN(CC(F)F)CC3)O[C@@](C)(CO)C4)cnn2c1` [Example 382, (R)-N-(6-(4-(2,2-difluoroethyl)piperazin-1-yl)-2-(hydroxymethyl)-2-methyl-2,3-dihydrobenzofuran-5-yl)-6-(methylamino)pyrazolo[1,5-a]pyrimidine-3-carboxamide] yielded a Ki of 4 nM.
In the case of `CC(=O)c1cnc2c(C(=O)Nc3cc4c(cc3N3CCOCC3)O[C@@](C)(CO)C4)cnn2c1` [Example 85, (R)-6-Acetyl-N-(2-(hydroxymethyl)-2-methyl-6-morpholino-2,3-dihydrobenzofuran-5-yl)pyrazolo[1,5-a]pyrimidine-3-carboxamide], the Ki is reported as 17 nM.
`CC1(C)Cc2cc(NC(=O)c3cnn4cccnc34)c(N3CCCN(CC(F)F)CC3)cc2O1` [Example 149, N-(6-(4-(2,2-difluoroethyl)-1,4-diazepan-1-yl)-2,2-dimethyl-2,3-dihydrobenzofuran-5-yl)pyrazolo[1,5-a]pyrimidine-3-carboxamide] was tested, and the Ki was 25 nM.
With `O=C(Nc1cc2c(cc1N1CCOCC1)C(=O)N(CC1CCCCO1)C2)c1cnn2cccnc12` (stereo not shown) [Example 257, N-[6-Morpholino-1-oxo-2-(tetrahydropyran-2-ylmethyl)isoindolin-5-yl]pyrazolo[1,5-a]pyrimidine-3-carboxamide] the Ki was 6 nM.
`C[C@@]1(CO)Cc2cc(NC(=O)c3cnn4cc(F)cnc34)c(N3CCOCC3)cc2O1` [Example 55, (S)-6-Fluoro-N-(2-(hydroxymethyl)-2-methyl-6-morpholino-2,3-dihydrobenzofuran-5-yl)pyrazolo[1,5-a]pyrimidine-3-carboxamide] gave a Ki of 34 nM.
`CC(C)(CO)CN1Cc2cc(NC(=O)c3cnn4cccnc34)c(N3CCOCC3)cc2C1=O` [Example 267, N-[2-(3-hydroxy-2,2-Dimethyl-propyl)-6-morpholino-1-oxo-isoindolin-5-yl]pyrazolo[1,5-a]pyrimidine-3-carboxamide] was tested, and the Ki was 39 nM.
`CC1(C)Cc2cc(NC(=O)c3cnn4ccc(C[C@@H]5CNC(=O)C5)nc34)c(C3CC3)cc2O1` [Example 512, (S)—N-(6-Cyclopropyl-2,2-dimethyl-2,3-dihydrobenzofuran-5-yl)-5-((5-oxopyrrolidin-3-yl)methyl)pyrazolo[1,5-a]pyrimidine-3-carboxamide] was tested, and the Ki was 150 nM.
`CC1(CO)Cc2cc(NC(=O)c3cnn4cccnc34)c(N3CC4C(CO)C4C3)cc2O1` (stereo not shown) [Example 322, N-(2-(hydroxymethyl)-6-(6-(hydroxymethyl)-3-azabicyclo[3.1.0]hexan-3-yl)-2-methyl-2,3-dihydrobenzofuran-5-yl)pyrazolo[1,5-a]pyrimidine-3-carboxamide] showed a Ki of 35 nM.
Work on `CC1(C)Cc2cc(NC(=O)c3cnn4cccnc34)c(N3CC4CC3CC4(F)F)cc2O1` (stereo not shown) [Example 193, N-[6-(5,5-difluoro-2-azabicyclo[2.2.1]heptan-2-yl)-2,2-dimethyl-3H-benzofuran-5-yl]pyrazolo[1,5-a]pyrimidine-3-carboxamide] yielded a Ki of 100 nM.
`C[C@@H]1CN(C)CC[C@]12Cc1cc(NC(=O)c3cnn4cccnc34)c(N3CCOCC3)cc1O2` [Example 498, N-((2R,3′R)-1′,3′-dimethyl-6-morpholino-3H-spiro[benzofuran-2,4′-piperidin]-5-yl)pyrazolo[1,5-a]pyrimidine-3-carboxamide] showed a Ki of 29 nM.
`CC1(C)Cc2cc(NC(=O)c3cnn4cccnc34)c(N3C[C@@H](F)[C@@H](F)C3)cc2O1` [Example 203, N-(6-((3R,4S)-3,4-difluoropyrrolidin-1-yl)-2,2-dimethyl-2,3-dihydrobenzofuran-5-yl)pyrazolo[1,5-a]pyrimidine-3-carboxamide] showed a Ki of 15 nM.
With `C[C@H]1CN(C)CC[C@]12Cc1cc(NC(=O)c3cnn4cccnc34)c(N3CCOCC3)cc1O2` [Example 497, N-((2R,3'S)-1′,3′-dimethyl-6-morpholino-3H-spiro[benzofuran-2,4′-piperidin]-5-yl)pyrazolo[1,5-a]pyrimidine-3-carboxamide] the Ki was 2.6 nM.
Work on `CC1(C)Cc2cc(NC(=O)c3cnn4cccnc34)c(N3CC[C@]4(CCOC4)C3)cc2O1` (single isomer, unassigned) [Example 223] yielded a Ki of 72 nM.
Molecule `CSCC[C@@]1(C)Cc2cc(NC(=O)c3cnn4cccnc34)c(N3CCOCC3)cc2O1` [Example 444, (R)—N-(2-methyl-2-(2-(methylthio)ethyl)-6-morpholino-2,3-dihydrobenzofuran-5-yl)pyrazolo[1,5-a]pyrimidine-3-carboxamide] has a Ki of 2.8 nM.
`CC1(C)Cc2cc(NC(=O)c3cnn4cccnc34)c(N3C[C@@H]4CC(F)(F)C[C@@H]4C3)cc2O1` [Example 197, N-(6-((3aR,6aS)-5,5-difluorohexahydrocyclopenta[c]pyrrol-2(1H)-yl)-2,2-dimethyl-2,3-dihydrobenzofuran-5-yl)pyrazolo[1,5-a]pyrimidine-3-carboxamide] gave a Ki of 33 nM.
`CN1CCC2(CC1)Cc1cc(NC(=O)c3cnn4cccnc34)c(N3CCN(CC(N)=O)CC3)cc1O2` [Example 373, N-(6-(4-(2-Amino-2-oxoethyl)piperazin-1-yl)-1′-methyl-3H-spiro[benzofuran-2,4′-piperidin]-5-yl)pyrazolo[1,5-a]pyrimidine-3-carboxamide] was tested, and the Ki was 1.7 nM.
Work on `CC1(C)Cc2cc(NC(=O)c3cnn4cccnc34)c(N3CCN(C(C)(C)CO)CC3)cc2O1` [Example 137, N-[6-[4-(2-Hydroxy-1,1-dimethyl-ethyl)piperazin-1-yl]-2,2-dimethyl-3H-benzofuran-5-yl]pyrazolo[1,5-a]pyrimidine-3-carboxamide] yielded a Ki of 170 nM.
`CC(C)(O)[C@H](F)CN1Cc2cc(NC(=O)c3cnn4cccnc34)c(N3CCC3)cc2C1=O` [Example 563, N-[6-(azetidin-1-yl)-2-[(2R)-2-fluoro-3-hydroxy-3-methyl-butyl]-1-oxo-isoindolin-5-yl]pyrazolo[1,5-a]pyrimidine-3-carboxamide] showed a Ki of 33 nM.
With `CC1(C)Cc2cc(NC(=O)c3cnn4cccnc34)c(C3CCNCC3)cc2O1` [Example 62, N-[2,2-Dimethyl-6-(4-piperidyl)-3H-benzofuran-5-yl]pyrazolo[1,5-a]pyrimidine-3-carboxamide] the Ki was 260 nM.
Work on `CC1(C)Cc2cc(NC(=O)c3cnn4cccnc34)c(N3CCN(CC4CC4)CC3)cc2O1` [Example 458, N-(6-(4-(cyclopropylmethyl)piperazin-1-yl)-2,2-dimethyl-2,3-dihydrobenzofuran-5-yl)pyrazolo[1,5-a]pyrimidine-3-carboxamide] yielded a Ki of 37 nM.
For `C[C@@]1(O)COc2cc(N3CCC([C@](C)(O)C(F)(F)F)CC3)c(NC(=O)c3cnn4cccnc34)cc2C1` [Example 421, N—((S)-3-hydroxy-3-methyl-7-(4-((S)-1,1,1-trifluoro-2-hydroxypropan-2-yl)piperidin-1-yl)chroman-6-yl)pyrazolo[1,5-a]pyrimidine-3-carboxamide], the Ki was 100 nM.
`CC(C)N1CCC2(CC1)Cc1cc(NC(=O)c3cnn4cccnc34)c(N3CCOCC3)cc1O2` [Example 372, N-(1′-isopropyl-6-morpholino-spiro[3H-benzofuran-2,4′-piperidine]-5-yl)pyrazolo[1,5-a]pyrimidine-3-carboxamide] showed a Ki of 13 nM.
For `Cc1cnc2c(C(=O)Nc3cc4c(cc3N3CCC(C(C)(C)O)CC3)O[C@](C)(CO)C4)cnn2c1` [Example 53, (S)—N-(2-(Hydroxymethyl)-6-(4-(2-hydroxypropan-2-yl)piperidin-1-yl)-2-methyl-2,3-dihydrobenzofuran-5-yl)-6-methylpyrazolo[1,5-a]pyrimidine-3-carboxamide], the Ki was 2.7 nM.
With `C[C@@]1(CO)Cc2cc(NC(=O)c3cnn4cccnc34)c(C(F)(F)F)cc2O1` [Example 72, N-[(2S)-2-(hydroxymethyl)-2-methyl-6-(trifluoromethyl)-3H-benzofuran-5-yl]pyrazolo[1,5-a]pyrimidine-3-carboxamide] the Ki was 450 nM.
In the case of `C[C@@]1(CO)Cc2cc(NC(=O)c3cnn4cccnc34)c(N3CCOCC3)c(Cl)c2O1` [Example 81, (S)—N-(7-chloro-2-(hydroxymethyl)-2-methyl-6-morpholino-2,3-dihydrobenzofuran-5-yl)pyrazolo[1,5-a]pyrimidine-3-carboxamide], the Ki is reported as 100 nM.
`CC1(C)Cc2cc(NC(=O)c3cnn4cccnc34)c(N3CCN(CC(=O)N4CCOCC4)CC3)cc2O1` [Example 228, N-(2,2-Dimethyl-6-(4-(2-morpholino-2-oxoethyl)piperazin-1-yl)-2,3-dihydrobenzofuran-5-yl)pyrazolo[1,5-a]pyrimidine-3-carboxamide] was tested, and the Ki was 48 nM.
For `CC1(C)CS(=O)(=O)c2cc(N3CCOCC3)c(NC(=O)c3cnn4cccnc34)cc2N1` [Example 403, N-(3,3-Dimethyl-7-morpholino-1,1-dioxido-3,4-dihydro-2H-benzo[b][1,4]thiazin-6-yl)pyrazolo[1,5-a]pyrimidine-3-carboxamide], the Ki was 680 nM.
For `CC(C)N1Cc2cc(NC(=O)c3cnn4ccc(C(F)F)nc34)c(N3CCOCC3)cc2C1=O` [Example 484, 5-(Difluoromethyl)-N-(2-isopropyl-6-morpholino-1-oxo-isoindolin-5-yl)pyrazolo[1,5-a]pyrimidine-3-carboxamide], the Ki was 350 nM.
For `C[C@]1(CO)Cc2cc(NC(=O)c3cnn4cccnc34)c(N3CC[C@H](F)C3)cc2O1` [Example 57, N-[(2R)-6-[(3S)-3-Fluoropyrrolidin-1-yl]-2-(hydroxymethyl)-2-methyl-3H-benzofuran-5-yl]pyrazolo[1,5-a]pyrimidine-3-carboxamide], the Ki was 60 nM.
For `C[C@@]1(CO)Cc2cc(NC(=O)c3cnn4cccnc34)c(N3C[C@@H]4[C@H](C3)[C@@H]4C(N)=O)cc2O1` [Example 349, N-((S)-6-((1R,5S,6R)-6-carbamoyl-3-azabicyclo[3.1.0]hexan-3-yl)-2-(hydroxymethyl)-2-methyl-2,3-dihydrobenzofuran-5-yl)pyrazolo[1,5-a]pyrimidine-3-carboxamide], the Ki was 1100 nM.
Work on `C[C@]1(CO)CCc2cc(NC(=O)c3cnn4cccnc34)c(N3CCOCC3)cc2O1` (single isomer, unassigned) [Example 432] yielded a Ki of 10 nM.
